Numbered stars: 1 amine (or outer) side, 2 acyl side, 3 side chain; on linkers, the order of the positions; unused ones are H or OH. Bridge positions count the residues as written; N and C are the ends. Square brackets hold non-standard residues; d marks the D form. Peptide text beside a SMILES is read from it. * marks the point of attachment. C20 diacid = O=C(O)CCCCCCCCCCCCCCCCCCC(=O)*; γGlu = O=C(O)[C@H](CCC(=O)[*:2])N[*:1]; NMeI = CC[C@H](C)[C@H](NC)C(=O)O; Sar = CNCC(=O)O
Experiments:
[1] = target: T1, human amylin receptor 3 (hAMYR3) consisting of hCTR2 co-expressed with human Receptor Activity Modifying Protein 3 (hRAMP3) (Homo sapiens, UniProt O60896+P30988); assay: hAMYR3 assay: induction of cAMP (AlphaScreen cAMP Assay kit) in COS7 cells expressing hAMYR3; format: cell-based; conditions: cAMP induction in COS7 cells expressing hAMYR3; average of a minimum of 3 determinations; read-out: hAMY R3 EC50
T1 construct: expressed in transfected cells
T1 sequence (P30988 25-474): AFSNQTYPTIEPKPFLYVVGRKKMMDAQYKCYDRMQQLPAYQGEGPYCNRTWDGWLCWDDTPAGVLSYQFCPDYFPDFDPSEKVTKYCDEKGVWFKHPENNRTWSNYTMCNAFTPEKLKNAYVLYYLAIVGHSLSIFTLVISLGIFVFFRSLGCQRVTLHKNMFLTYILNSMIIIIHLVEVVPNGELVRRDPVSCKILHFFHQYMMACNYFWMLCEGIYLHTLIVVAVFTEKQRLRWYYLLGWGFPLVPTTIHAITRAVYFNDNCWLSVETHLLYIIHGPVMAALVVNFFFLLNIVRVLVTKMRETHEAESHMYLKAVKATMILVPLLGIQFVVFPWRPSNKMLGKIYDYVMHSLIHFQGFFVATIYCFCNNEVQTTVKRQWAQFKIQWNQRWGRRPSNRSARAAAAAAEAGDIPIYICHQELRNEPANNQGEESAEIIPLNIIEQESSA
T1 sequence (O60896 24-148 partner): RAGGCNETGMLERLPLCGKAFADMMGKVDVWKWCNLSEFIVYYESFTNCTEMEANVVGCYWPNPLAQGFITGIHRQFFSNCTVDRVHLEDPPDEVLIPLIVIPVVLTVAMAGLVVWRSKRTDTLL
Procedure, shortened: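 Stable COS7 clone co-expressing hCTR2 and hRAMP3, stimulated 15 min at 37° C with increasing peptide in Tyrode buffer pH 7.4 with 100 µM IBMX and 0.1% casein. cAMP measured by AlphaScreen after lysis; EC50 and % efficacy versus pramlintide from 4PL fit.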

[2] = Solubility assessment (turbidity absorbance at 325 nm); format: physicochemical; conditions: stock 2 mg/ml diluted 1:1, ambient temperature (typically 25°C), n=1; for Solubility, Acetate buffer pH 4: 100 mM acetate buffer pH 4.0; for Solubility, Acetate buffer pH 5: 100 mM acetate buffer pH 5.0; for Solubility, Histidine buffer pH 6: 100 mM histidine buffer pH 6.0; for Solubility, Histidine buffer pH 7: 100 mM histidine buffer pH 7.0; for Solubility, Phosphate buffer pH 6: 100 mM phosphate buffer pH 6.0; for Solubility, Phosphate buffer pH 7: 100 mM phosphate buffer pH 7.0; for Solubility, Phosphate buffer pH 7.5: 100 mM phosphate buffer pH7.5
Procedure, shortened: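 Peptide stock (2 mg/ml, water pH 2.5) diluted 1:1 into 100 mM acetate (pH 4.0, 5.0), histidine (pH 6.0, 7.0) or phosphate (pH 6.0–7.5) buffer; absorbance at 325 nm read at about 25°C, n=1. A325 ≤ 0.02 taken as solubility ≥ 1 mg/ml.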

[3] = target: T2, human calcitonin receptor (hCTR2) (Homo sapiens, UniProt P30988); assay: hCTR2 assay: induction of cAMP (AlphaScreen cAMP Assay kit) in COS7 cells expressing hCTR2; format: cell-based; conditions: cAMP induction in COS7 cells expressing hCTR2; average of a minimum of 3 determinations; read-out: hCTR2 EC50
T2 construct: expressed in transfected cells
T2 sequence (P30988 25-474): T1 sequence (P30988 25-474)
Procedure, shortened: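 Stable RAMP-naive COS7 clone expressing hCTR2 was stimulated with increasing peptide concentrations in Tyrode buffer (pH 7.4) with 100 µM IBMX and 0.1% casein for 15 min at 37° C. Cells were lysed and cAMP measured by AlphaScreen. EC50 and efficacy relative to pramlintide came from 4PL curve fits.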

| EC50 [1] | Solubility, Acetate buffer pH 4 [2] | Solubility, Acetate buffer pH 5 [2] | Solubility, Histidine buffer pH 6 [2] | Solubility, Histidine buffer pH 7 [2] | Solubility, Phosphate buffer pH 6 [2] | Solubility, Phosphate buffer pH 7 [2] | Solubility, Phosphate buffer pH 7.5 [2] | EC50 [3] | SMILES |
| --- | --- | --- | --- | --- | --- | --- | --- | --- | --- |
| 0.11 nM | SS (SS indicates solubility ≥ 1mg/ml) | SS (SS indicates solubility ≥ 1mg/ml) | SS (SS indicates solubility ≥ 1mg/ml) | SS (SS indicates solubility ≥ 1mg/ml) | SS (SS indicates solubility ≥ 1mg/ml) | SS (SS indicates solubility ≥ 1mg/ml) | SS (SS indicates solubility ≥ 1mg/ml) | 0.048 nM | CC[C@H](C)[C@@H](C(=O)N[C@@H](CC(C)C)C(=O)N[C@@H](CO)C(=O)N[C@@H](CO)C(=O)N[C@H](C(=O)N[C@@H](CC(=O)O)C(=O)N[C@H](C(=O)NCC(=O)N[C@@H](CO)C(=O)N[C@@H](CC(=O)O)C(=O)N[C@H](C(=O)N1CCC[C@H]1C(N)=O)[C@@H](C)O)C(C)C)[C@@H](C)O)N(C)C(=O)[C@H](C)NC(=O)CN(C)C(=O)[C@H](Cc1ccccc1)NC(=O)[C@H](CO)NC(=O)[C@H](CO)NC(=O)[C@H](CCCNC(=N)N)NC(=O)[C@H](Cc1c[nH]cn1)NC(=O)[C@H](CC(C)C)NC(=O)[C@H](Cc1ccccc1)NC(=O)[C@H](CCC(=O)O)NC(=O)[C@H](C)NC(=O)[C@H](CC(C)C)NC(=O)[C@H](CCCNC(=N)N)NC(=O)[C@H](CC(=O)O)NC(=O)[C@@H](NC(=O)[C@H](C)NC(=O)[C@@H]1CSSC[C@H](NC(=O)[C@H](CCCNC(=N)N)NC(=O)CC[C@H](NC(=O)CCCCCCCCCCCCCCCCCCC(=O)O)C(=O)O)C(=O)NCC(=O)N[C@@H]([C@@H](C)O)C(=O)N[C@@H](C)C(=O)N[C@@H]([C@@H](C)O)C(=O)N1)[C@@H](C)O [Compound 158, [19CD]-isoGlu-RC()GTATC()ATDRLAEFLHRSSF-Gly(Me)-A-Ile(Me)-LSSTDVGSDTP-NH2] ({C20 diacid-γGlu}-RCGTATCATDRLAEFLHRSSF[Sar]A[NMeI]LSSTDVGSDTP-NH2; disulfide 2-7) |
| 0.14 nM | SS (SS indicates solubility ≥ 1mg/ml) | SS (SS indicates solubility ≥ 1mg/ml) | SS (SS indicates solubility ≥ 1mg/ml) | SS (SS indicates solubility ≥ 1mg/ml) | SS (SS indicates solubility ≥ 1mg/ml) | SS (SS indicates solubility ≥ 1mg/ml) | SS (SS indicates solubility ≥ 1mg/ml) | 0.1 nM | CC[C@H](C)[C@@H](C(=O)N[C@@H](CC(C)C)C(=O)N[C@@H](CO)C(=O)N[C@@H](CO)C(=O)N[C@H](C(=O)N[C@@H](CC(=O)O)C(=O)N[C@H](C(=O)NCC(=O)N[C@@H](CO)C(=O)N[C@@H](CC(=O)O)C(=O)N[C@H](C(=O)N1CCC[C@H]1C(N)=O)[C@@H](C)O)C(C)C)[C@@H](C)O)N(C)C(=O)[C@H](C)NC(=O)CN(C)C(=O)[C@H](Cc1ccccc1)NC(=O)[C@H](CO)NC(=O)[C@H](CO)NC(=O)[C@H](CO)NC(=O)[C@H](CO)NC(=O)[C@H](CCCNC(=N)N)NC(=O)[C@H](Cc1c[nH]cn1)NC(=O)[C@H](CC(C)C)NC(=O)[C@H](Cc1ccccc1)NC(=O)[C@H](CCC(=O)O)NC(=O)[C@H](C)NC(=O)[C@H](CC(C)C)NC(=O)[C@H](CCCNC(=N)N)NC(=O)[C@H](CCC(=O)O)NC(=O)[C@@H](NC(=O)[C@H](C)NC(=O)[C@@H]1CSSC[C@H](NC(=O)[C@H](CCCCN)NC(=O)[C@H](CCCCN)NC(=O)CC[C@H](NC(=O)CCCCCCCCCCCCCCCCCCC(=O)O)C(=O)O)C(=O)N[C@@H](CC(N)=O)C(=O)N[C@@H]([C@@H](C)O)C(=O)N[C@@H](C)C(=O)N[C@@H]([C@@H](C)O)C(=O)N1)[C@@H](C)O [Compound 159, [19CD]-isoGlu-KKC()NTATC()ATERLAEFLHRSSSSF-Gly(Me)-A-Ile(Me)-LSSTDVGSDTP-NH2] ({C20 diacid-γGlu}-KKCNTATCATERLAEFLHRSSSSF[Sar]A[NMeI]LSSTDVGSDTP-NH2; disulfide 3-8) |
| 0.14 nM | SS (SS indicates solubility ≥ 1mg/ml) | SS (SS indicates solubility ≥ 1mg/ml) | SS (SS indicates solubility ≥ 1mg/ml) | SS (SS indicates solubility ≥ 1mg/ml) | SS (SS indicates solubility ≥ 1mg/ml) | SS (SS indicates solubility ≥ 1mg/ml) | SS (SS indicates solubility ≥ 1mg/ml) | 0.13 nM | CC[C@H](C)[C@@H](C(=O)N[C@@H](CC(C)C)C(=O)N[C@@H](CO)C(=O)N[C@@H](CO)C(=O)N[C@H](C(=O)N[C@@H](CC(=O)O)C(=O)N[C@H](C(=O)NCC(=O)N[C@@H](CO)C(=O)N[C@@H](CC(=O)O)C(=O)N[C@H](C(=O)N1CCC[C@H]1C(N)=O)[C@@H](C)O)C(C)C)[C@@H](C)O)N(C)C(=O)[C@H](C)NC(=O)CN(C)C(=O)[C@H](Cc1ccccc1)NC(=O)[C@H](CO)NC(=O)[C@H](CO)NC(=O)[C@H](CO)NC(=O)[C@H](CO)NC(=O)[C@H](CCCNC(=N)N)NC(=O)[C@H](Cc1c[nH]cn1)NC(=O)[C@H](CC(C)C)NC(=O)[C@H](Cc1ccccc1)NC(=O)[C@H](CCC(=O)O)NC(=O)[C@H](C)NC(=O)[C@H](CC(C)C)NC(=O)[C@H](CCCNC(=N)N)NC(=O)[C@H](CCC(=O)O)NC(=O)[C@@H](NC(=O)[C@H](C)NC(=O)[C@@H]1CSSC[C@H](NC(=O)[C@H](CCCNC(=N)N)NC(=O)CC[C@H](NC(=O)CCCCCCCCCCCCCCCCCCC(=O)O)C(=O)O)C(=O)N[C@@H](CC(N)=O)C(=O)N[C@@H]([C@@H](C)O)C(=O)N[C@@H](C)C(=O)N[C@@H]([C@@H](C)O)C(=O)N1)[C@@H](C)O [Compound 160, [19CD]-isoGlu-RC()NTATC()ATERLAEFLHRSSSSF-Gly(Me)-A-Ile(Me)-LSSTDVGSDTP-NH2] ({C20 diacid-γGlu}-RCNTATCATERLAEFLHRSSSSF[Sar]A[NMeI]LSSTDVGSDTP-NH2; disulfide 2-7) |
| 0.74 nM | SS (SS indicates solubility ≥ 1mg/ml) | SS (SS indicates solubility ≥ 1mg/ml) | SS (SS indicates solubility ≥ 1mg/ml) | SS (SS indicates solubility ≥ 1mg/ml) | SS (SS indicates solubility ≥ 1mg/ml) | II (II indicates solubility ≤ 1 mg/ml) | SS (SS indicates solubility ≥ 1mg/ml) | 0.42 nM | CC[C@H](C)[C@@H](C(=O)N[C@@H](CC(C)C)C(=O)N[C@@H](CO)C(=O)N[C@@H](CO)C(=O)N[C@H](C(=O)N[C@@H](CCC(=O)O)C(=O)N[C@H](C(=O)NCC(=O)N[C@@H](CO)C(=O)N[C@@H](CCC(=O)O)C(=O)N[C@H](C(=O)N1CCC[C@H]1C(N)=O)[C@@H](C)O)C(C)C)[C@@H](C)O)N(C)C(=O)[C@H](C)NC(=O)CN(C)C(=O)[C@H](Cc1ccccc1)NC(=O)[C@H](CO)NC(=O)[C@H](CO)NC(=O)[C@H](CO)NC(=O)[C@H](CO)NC(=O)[C@H](CCCNC(=N)N)NC(=O)[C@H](Cc1c[nH]cn1)NC(=O)[C@H](CC(C)C)NC(=O)[C@H](Cc1ccccc1)NC(=O)[C@H](CCC(=O)O)NC(=O)[C@H](C)NC(=O)[C@H](CC(C)C)NC(=O)[C@H](CCCNC(=N)N)NC(=O)[C@H](CCC(=O)O)NC(=O)[C@@H](NC(=O)[C@H](C)NC(=O)[C@@H]1CSSC[C@H](NC(=O)[C@H](CCCCN)NC(=O)[C@H](CCCCN)NC(=O)CC[C@H](NC(=O)CCCCCCCCCCCCCCCCCCC(=O)O)C(=O)O)C(=O)N[C@@H](CCC(=O)O)C(=O)N[C@@H]([C@@H](C)O)C(=O)N[C@@H](C)C(=O)N[C@@H]([C@@H](C)O)C(=O)N1)[C@@H](C)O [Compound 163, [19CD]-isoGlu-KKC()ETATC()ATERLAEFLHRSSSSF-Gly(Me)-A-Ile(Me)-LSSTEVGSETP-NH2] ({C20 diacid-γGlu}-KKCETATCATERLAEFLHRSSSSF[Sar]A[NMeI]LSSTEVGSETP-NH2; disulfide 3-8) |

From patent publication EP3046573B1, “AMYLIN ANALOGUES” (Zealand Pharma A/S, priority 2013, dated 2015)
